The record followed here is BindingDB's records for PubMed 37981443 (National Clinical Research Center for Geriatrics).

Molecules are shown by their SMILES.

For assay [1], the target named is Procathepsin L (Homo sapiens, UniProt P07711). In words: Inhibition of Cathepsin L (unknown origin).
Assay [2] addresses 1-phosphatidylinositol 3-phosphate 5-kinase (Homo sapiens, UniProt Q9Y2I7). In words: Inhibition of N-terminal His-tagged human PIKfyve expressed in Sf9 insect cells incubated for 1 hr by enzyme assay.

Procathepsin L, sequence (P07711 whole entry): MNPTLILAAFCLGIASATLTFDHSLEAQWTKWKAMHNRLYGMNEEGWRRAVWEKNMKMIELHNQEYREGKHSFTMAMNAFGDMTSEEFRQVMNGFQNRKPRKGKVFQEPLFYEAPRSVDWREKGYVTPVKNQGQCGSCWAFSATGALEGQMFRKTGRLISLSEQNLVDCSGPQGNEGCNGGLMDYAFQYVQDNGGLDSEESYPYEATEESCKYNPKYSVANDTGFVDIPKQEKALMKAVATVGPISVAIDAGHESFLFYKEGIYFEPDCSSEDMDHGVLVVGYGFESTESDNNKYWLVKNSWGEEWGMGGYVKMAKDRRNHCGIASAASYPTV
1-phosphatidylinositol 3-phosphate 5-kinase, sequence (Q9Y2I7 whole entry): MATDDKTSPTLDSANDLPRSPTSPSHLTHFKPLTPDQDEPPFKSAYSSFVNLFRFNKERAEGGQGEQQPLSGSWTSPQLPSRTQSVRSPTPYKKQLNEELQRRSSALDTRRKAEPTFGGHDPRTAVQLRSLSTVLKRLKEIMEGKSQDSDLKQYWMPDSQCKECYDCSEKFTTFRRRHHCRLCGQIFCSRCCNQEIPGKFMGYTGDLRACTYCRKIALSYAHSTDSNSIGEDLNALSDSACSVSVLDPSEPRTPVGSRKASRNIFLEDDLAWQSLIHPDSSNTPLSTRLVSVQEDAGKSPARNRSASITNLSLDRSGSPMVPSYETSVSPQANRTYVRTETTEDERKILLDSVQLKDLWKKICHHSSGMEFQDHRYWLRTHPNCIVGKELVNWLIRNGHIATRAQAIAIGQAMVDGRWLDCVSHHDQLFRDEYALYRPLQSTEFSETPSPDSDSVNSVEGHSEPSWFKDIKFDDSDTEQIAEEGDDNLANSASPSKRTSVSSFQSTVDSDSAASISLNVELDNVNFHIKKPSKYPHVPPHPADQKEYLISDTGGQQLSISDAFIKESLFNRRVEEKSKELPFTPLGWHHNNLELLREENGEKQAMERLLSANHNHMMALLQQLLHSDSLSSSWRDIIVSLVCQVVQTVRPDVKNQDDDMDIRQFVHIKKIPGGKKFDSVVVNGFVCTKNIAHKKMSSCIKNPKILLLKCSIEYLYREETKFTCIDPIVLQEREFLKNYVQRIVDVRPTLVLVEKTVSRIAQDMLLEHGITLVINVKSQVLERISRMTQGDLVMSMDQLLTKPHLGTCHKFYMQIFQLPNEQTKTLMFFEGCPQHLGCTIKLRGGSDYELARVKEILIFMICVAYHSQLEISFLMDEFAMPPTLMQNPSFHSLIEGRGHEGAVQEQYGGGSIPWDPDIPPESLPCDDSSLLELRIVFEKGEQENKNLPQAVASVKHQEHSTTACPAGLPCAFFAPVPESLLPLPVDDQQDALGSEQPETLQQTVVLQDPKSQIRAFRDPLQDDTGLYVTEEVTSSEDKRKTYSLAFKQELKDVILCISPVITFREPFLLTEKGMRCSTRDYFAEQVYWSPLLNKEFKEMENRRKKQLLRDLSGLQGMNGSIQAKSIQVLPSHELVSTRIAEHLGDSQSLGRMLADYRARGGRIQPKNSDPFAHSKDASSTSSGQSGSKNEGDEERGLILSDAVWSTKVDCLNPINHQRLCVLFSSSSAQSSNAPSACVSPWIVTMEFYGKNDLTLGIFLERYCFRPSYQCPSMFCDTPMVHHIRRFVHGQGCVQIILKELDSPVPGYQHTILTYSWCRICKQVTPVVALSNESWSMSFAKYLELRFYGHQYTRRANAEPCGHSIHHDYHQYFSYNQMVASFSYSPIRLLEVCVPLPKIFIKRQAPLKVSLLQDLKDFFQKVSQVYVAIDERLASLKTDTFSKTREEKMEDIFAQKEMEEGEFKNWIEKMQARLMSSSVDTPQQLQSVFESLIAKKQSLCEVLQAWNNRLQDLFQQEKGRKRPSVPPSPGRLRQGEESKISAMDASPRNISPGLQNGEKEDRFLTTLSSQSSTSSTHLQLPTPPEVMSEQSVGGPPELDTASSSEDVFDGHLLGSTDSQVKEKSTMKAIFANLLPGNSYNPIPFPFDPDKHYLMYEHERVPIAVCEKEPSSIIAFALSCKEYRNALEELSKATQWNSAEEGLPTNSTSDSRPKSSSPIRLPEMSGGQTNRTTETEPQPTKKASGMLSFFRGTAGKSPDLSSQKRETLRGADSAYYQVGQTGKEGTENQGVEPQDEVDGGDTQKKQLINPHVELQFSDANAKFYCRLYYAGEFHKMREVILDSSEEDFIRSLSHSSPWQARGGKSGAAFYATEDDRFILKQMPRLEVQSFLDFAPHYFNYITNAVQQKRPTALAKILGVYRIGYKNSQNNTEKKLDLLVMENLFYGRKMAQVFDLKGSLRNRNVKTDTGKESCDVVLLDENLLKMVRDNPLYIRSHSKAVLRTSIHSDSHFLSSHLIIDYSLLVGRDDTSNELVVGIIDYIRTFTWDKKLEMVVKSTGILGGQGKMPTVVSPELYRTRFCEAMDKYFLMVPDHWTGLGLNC

`CCCC[C@@H](C=O)NC(=O)[C@H](CC(C)C)NC(=O)OCc1ccccc1` [[(S)-1-((S)-1-Formyl-pentylcarbamoyl)-3-methyl-butyl]-carbamic acid benzyl ester] registered an IC50 in assay [1] of 44 nM.
`COc1ccc2[nH]c(C)c(/C=C/C(=O)c3ccncc3)c2c1` gave an IC50 in assay [2] of 5.1 nM.

By IC50 is commonly meant the concentration needed to halve the response being measured.
